Measurements: patent publication US20090317326A1, “RADIOFLUORINATION METHODS” (priority 2007, published 2009)
Read-outs that look alike come from different tables or passages of the source. Starred links: 1 amine or outer side, 2 acyl side, 3 side chain; linkers in the order of their positions; H or OH if unused. Non-standard residues stand in square brackets, D forms with d. Residues, ends and D or L forms follow the SMILES beside them. *: point of attachment. γ4hIle = CC[C@H](C)[C@@H](CCC(=O)[*:2])N[*:1]; Benzoyl(3-CN,4-F) = N#Cc1cc(C(=O)*)ccc1F; Ava = NCCCCC(=O)O

Experiments:
[1] = system: human prostate cancer PC-3; details: mouse, in vivo
Procedure: (§1) Nude mice bearing human prostate cancer PC-3 were injected with 100 μl radioactive peptide dissolved in PBS containing 135 kBq per animal. For blocking 100 μg unlabeled gastrin-releasing peptide was co-injected. One hour post injection the animals were sacrificed and organs dissected for counting in a gamma-counter. Values are expressed as percent of the injected dose per gram organ weight.

[2] = system: human prostate cancer PC-3; test: Biodistribution of F-18 bombesin analogs in nude mice bearing human prostate cancer PC-3; details: for Blocking: protocol as above (100 μg unlabeled gastrin-releasing peptide co-injected)
Procedure: as §1

[3] = system: tumor; details: FIG. 5; versus tumor-tissue ratio of 18F-choline (FCH) and 18F-FB-Lys-BN
[4] = Biodistribution of F-18 bombesin analogs in nude mice bearing human prostate cancer PC-3; details: nude, mouse, 135 kBq per animal, total radioactivity
Procedure: as §1

Row | Compound | Panc. % ID/g [1] [% ID/g] | T/B [1] | T/M [1] | Blocking ([2]; Table 1) | tumor-tissue ratio relative to 18F-choline (FCH) and 18F-FB-Lys-BN [3] [time higher] | tissue uptake at 1 h ([4]; blood) [%ID/g] | tissue uptake at 1 h ([4]; kidneys) [%ID/g] | tissue uptake at 1 h ([4]; liver) [%ID/g] | tissue uptake at 1 h ([4]; muscle) [%ID/g] | tissue uptake at 1 h ([4]; pancreas) [%ID/g] | tissue uptake at 1 h ([4]; tumor) [%ID/g] | tissue to tissue ratio at 1 h ([4]; tumor/blood) | tissue to tissue ratio at 1 h ([4]; tumor/muscle) | T/B ([2]; Table 1, tumor/blood ratio) | T/M ([2]; Table 1, tumor/muscle ratio) | specificity of targeting (blocking) ([2]; blocking values low in tumor, unchanged for the other tissue) | accumulation in tumor ([2]; conclusion from biodistribution, 1 h)
1 | 3-CF3,4-F-Benzoyl-Arg-Ava-Gln-Trp-Ala-Val-NMeGly-His-Sta-Leu-NH2 (RXQWAVGHXL; N-methyl; non-natural residues) | 1.42 | 4.56 | 25.3 | >70% |  |  |  |  |  |  |  |  |  |  |  |  | 
2 | 3-CN,4-F-Benzoyl-Arg-Ava-Gln-Trp-Ala-Val-Gly-His(3Me)-Sta-Leu-NH2 (RXQWAVGHXL; non-natural residues) | 4.16 | 5.65 | 13.84 | 30-90% |  |  |  |  |  |  |  |  |  |  |  |  | 
3 | 3-CN,4-F-Benzoyl-Arg-Ava-Gln-Trp-Ala-Val-NMeGly-His-Sta-Leu-NH2 (RXQWAVGHXL; N-methyl; non-natural residues) | 1.3 | 6.82 | 12.75 | 40-70% |  |  |  |  |  |  |  |  |  |  |  |  | 
4 | 4F,3CN-Bnz-Arg-Ava-Gln-Trp-Ala-Val-NMeGly-His(3Me)-Sta-Leu-NH2 (RXQWAVGHXL; N-methyl; non-natural residues) | 3.51 | 2.57 | 16.77 | 50-80% |  |  |  |  |  |  |  |  |  |  |  |  | 
5 | CC[C@H](C)[C@@H](CCC(=O)N[C@@H](CC(C)C)C(N)=O)NC(=O)[C@H](Cc1c[nH]cn1)NC(=O)CNC(=O)[C@@H](NC(=O)[C@H](C)NC(=O)[C@H](Cc1c[nH]c2ccccc12)NC(=O)[C@H](CCC(N)=O)NC(=O)CCCCNC(=O)c1ccc(F)c(C#N)c1)C(C)C [3-CN,4-F-Bz-Ava-Gln-Trp-Ala-Val-Gly-His-FA01010-Leu-NH2] ({Benzoyl(3-CN,4-F)-Ava}-QWAVGH[γ4hIle]L-NH2) |  |  |  | >70% | 2.5 | 0.05 ± 0.01 | 0.24 ± 0.02 | 0.35 ± 0.13 | 0.02 | 0.34 ± 0.03 | 1 ± 0.01 | 21 ± 11.9 | 60 ± 29.5 | 21.03 | 59.99 | specific | accumulates in tumor
